From ChEMBL document CHEMBL4828717, “Synthetic cajaninstilbene acid derivatives eradicate methicillin-resistant Staphylococcus aureus persisters and biofilms” (Eur J Med Chem, 2021)

Assays:
Staphylococcus aureus [1] = test: Antibacterial activity against Staphylococcus aureus ATCC 25923 assessed as reduction in microbial growth after 16 to 18 hrs by microbroth dilution method; type: functional; details: time 16-18 hrs
Staphylococcus aureus [2] = test: Antibacterial activity against methicillin resistant Staphylococcus aureus ATCC 43300 assessed as reduction in microbial growth after 16 to 18 hrs by microbroth dilution method; type: functional; details: time 16-18 hrs
Staphylococcus aureus [3] = test: Antibacterial activity against methicillin resistant Staphylococcus aureus ATCC 62202 assessed as reduction in microbial growth after 16 to 18 hrs by microbroth dilution method; type: functional; details: time 16-18 hrs
Staphylococcus aureus [4] = test: Antibacterial activity against methicillin resistant Staphylococcus aureus ATCC 52056 assessed as reduction in microbial growth after 16 to 18 hrs by microbroth dilution method; type: functional; details: time 16-18 hrs
Staphylococcus aureus [5] = test: Antibacterial activity against methicillin resistant Staphylococcus aureus ATCC513045 assessed as reduction in microbial growth after 16 to 18 hrs by microbroth dilution method; type: functional; details: time 16-18 hrs
Staphylococcus aureus [6] = test: Antibacterial activity against methicillin resistant Staphylococcus aureus ATCC515992 assessed as reduction in microbial growth after 16 to 18 hrs by microbroth dilution method; type: functional; details: time 16-18 hrs
Staphylococcus aureus [7] = test: Antibacterial activity against methicillin resistant Staphylococcus aureus ATCC49800 assessed as reduction in microbial growth after 16 to 18 hrs by microbroth dilution method; type: functional; details: time 16-18 hrs
Staphylococcus aureus [8] = test: Antibacterial activity against methicillin resistant Staphylococcus aureus ATCC49025 assessed as reduction in microbial growth after 16 to 18 hrs by microbroth dilution method; type: functional; details: time 16-18 hrs
Staphylococcus aureus [9] = test: Antibacterial activity against methicillin resistant Staphylococcus aureus ATCC48073 assessed as reduction in microbial growth after 16 to 18 hrs by microbroth dilution method; type: functional; details: time 16-18 hrs
Staphylococcus aureus [10] = test: Antibacterial activity against methicillin resistant Staphylococcus aureus ATCC48966 assessed as reduction in microbial growth after 16 to 18 hrs by microbroth dilution method; type: functional; details: time 16-18 hrs
Staphylococcus aureus [11] = test: Antibacterial activity against methicillin resistant Staphylococcus aureus ATCC49008 assessed as reduction in microbial growth after 16 to 18 hrs by microbroth dilution method; type: functional; details: time 16-18 hrs
Staphylococcus aureus [12] = test: Antibacterial activity against methicillin resistant Staphylococcus aureus ATCC48706 assessed as reduction in microbial growth after 16 to 18 hrs by microbroth dilution method; type: functional; details: time 16-18 hrs
Escherichia coli = test: Antibacterial activity against Escherichia coli ATCC25922 assessed as reduction in microbial growth after 16 to 18 hrs by microbroth dilution method; type: functional; details: ATCC 25922, time 16-18 hrs
Pseudomonas aeruginosa = test: Antibacterial activity against Pseudomonas aeruginosa ATCC27853 assessed as reduction in microbial growth after 16 to 18 hrs by microbroth dilution method; type: functional; details: time 16-18 hrs
Enterococcus faecalis = test: Antibacterial activity against Enterococcus faecalis ATCC29212 assessed as reduction in microbial growth after 16 to 18 hrs by microbroth dilution method; type: functional; details: ATCC 29212, time 16-18 hrs
RAW264.7 = test: Cytotoxicity against mouse RAW264.7 cells assessed as cell viability at 10 ug/ml measured after 24 hrs by MTT assay; type: cell-based; details: raw264.7, 24 h, dose 10 µg/ml
L02 = test: Cytotoxicity against human L02 cells assessed as cell viability at 10 ug/ml measured after 24 hrs by MTT assay; type: cell-based; details: l02, 24 h, dose 10 µg/ml

Row | Structure (SMILES) | MIC (Staphylococcus aureus [1]) [µg/mL] | MIC (Staphylococcus aureus [2]) [µg/mL] | MIC (Staphylococcus aureus [3]) [µg/mL] | MIC (Staphylococcus aureus [4]) [µg/mL] | MIC (Staphylococcus aureus [5]) [µg/mL] | MIC (Staphylococcus aureus [6]) [µg/mL] | MIC (Staphylococcus aureus [7]) [µg/mL] | MIC (Staphylococcus aureus [8]) [µg/mL] | MIC (Staphylococcus aureus [9]) [µg/mL] | MIC (Staphylococcus aureus [10]) [µg/mL] | MIC (Staphylococcus aureus [11]) [µg/mL] | MIC (Staphylococcus aureus [12]) [µg/mL] | MIC (Escherichia coli) [µg/mL] | MIC (Pseudomonas aeruginosa) [µg/mL] | MIC (Enterococcus faecalis) [µg/mL] | Activity (RAW264.7) | Activity (L02)
1 | CC(C)=CCc1c(OC2CCCCC2)cc(/C=C/c2ccc(F)cc2)c(C(=O)O)c1O | 2 | 2 | 2 | 2 | 2 | 4 | 4 | 4 | 4 | 4 | 4 | 4 | > 32 | > 32 | > 32 | Toxic | Toxic
2 | CC(C)=CCc1c(OCCC(F)(F)F)cc(/C=C/c2ccc(F)cc2)c(C(=O)O)c1O | 4 | 4 | 4 | 4 | 2 | 4 | 4 | 4 | 4 | 4 | 4 | 4 | > 32 | > 32 | > 32 | Toxic | Toxic
3 | CCC(C)Oc1cc(/C=C/c2ccc(C(F)(F)F)cc2)c(C(=O)O)c(O)c1CC=C(C)C (stereo not drawn) | 2 | 1 | 2 | 2 | 2 | 2 | 2 | 2 | 2 | 2 | 2 | 2 | > 32 | > 32 | > 32 | Toxic | Toxic
4 | CC(C)=CCc1c(OCCF)cc(/C=C/c2ccc(C(F)(F)F)cc2)c(C(=O)O)c1O | 4 | 2 | 4 | 2 | 4 | 4 | 8 | 8 | 8 | 8 | 8 | 8 | > 32 | > 32 | > 32 | Toxic | Toxic
5 | CC(C)=CCc1c(OC(C)C)cc(/C=C/c2ccc(F)cc2)c(C(=O)O)c1O | 4 | 4 | 4 | 2 | 8 | 2 | 4 | 4 | 4 | 4 | 4 | 4 | > 32 | > 32 | > 32 | Toxic | Toxic
6 | CC(C)=CCc1c(OC2CCCC2)cc(/C=C/c2ccc(C(F)(F)F)cc2)c(C(=O)O)c1O | 2 | 2 | 2 | 2 | 2 | 2 | 2 | 2 | 2 | 2 | 2 | 2 | > 32 | > 32 | > 32 | Toxic | Toxic
7 | CCOc1cc(/C=C/c2ccc(F)cc2)c(C(=O)O)c(O)c1CC=C(C)C | 4 | 2 | 4 | 2 | 4 | 4 | 8 | 4 | 4 | 4 | 4 | 4 | > 32 | > 32 | > 32 | Toxic | Toxic
8 | CC(C)=CCc1c(OCC(F)F)cc(/C=C/c2ccc(C(F)(F)F)cc2)c(C(=O)O)c1O | 2 | 2 | 2 | 2 | 2 | 2 | 2 | 2 | 2 | 2 | 2 | 2 | > 32 | > 32 | > 32 | Toxic | Toxic
9 | CC(C)=CCc1c(OC2CCCCCC2)cc(/C=C/c2ccc(F)cc2)c(C(=O)O)c1O | 2 | 1 | 2 | 1 | 2 | 2 | 4 | 2 | 2 | 2 | 2 | 2 | > 32 | > 32 | > 32 | Toxic | Toxic
10 | CCCC(CC)Oc1cc(/C=C/c2ccc(F)cc2)c(C(=O)O)c(O)c1CC=C(C)C (stereo not drawn) | 2 | 1 | 2 | 2 | 2 | 2 | 2 | 2 | 4 | 2 | 2 | 4 | > 32 | > 32 | > 32 | Toxic | Toxic
11 | CC(C)=CCc1c(OCCCC(F)(F)F)cc(/C=C/c2ccc(C(F)(F)F)cc2)c(C(=O)O)c1O | 2 | 1 | 4 | 2 | 2 | 2 | 4 | 4 | 4 | 4 | 4 | 4 | > 32 | > 32 | > 32 | Toxic | Toxic
12 | CC(C)=CCc1c(OC2CCCC2)cc(/C=C/c2ccc(F)cc2)c(C(=O)O)c1O | 2 | 2 | 2 | 2 | 2 | 2 | 4 | 4 | 4 | 4 | 4 | 4 | > 32 | > 32 | > 32 | Toxic | Toxic
13 | CC(C)=CCc1c(OCC(F)(F)F)cc(/C=C/c2ccc(C(F)(F)F)cc2)c(C(=O)O)c1O | 2 | 2 | 2 | 2 | 2 | 2 | 2 | 2 | 2 | 2 | 2 | 2 | > 32 | > 32 | > 32 | Toxic | Toxic
14 | CC(C)=CCc1c(OCCCCF)cc(/C=C/c2ccc(C(F)(F)F)cc2)c(C(=O)O)c1O | 4 | 2 | 4 | 2 | 4 | 2 | 4 | 4 | 4 | 4 | 4 | 4 | > 32 | > 32 | > 32 | Toxic | Toxic
